Data set [1] deals with T1, MmeI (Methylophilus methylotrophus, UniProt B2MU09).
T1 construct: gene mmeIRM; residues 156-906 modelled, endonuclease domain 1-155 disordered; purified as described previously
T1 sequence (B2MU09 1-919): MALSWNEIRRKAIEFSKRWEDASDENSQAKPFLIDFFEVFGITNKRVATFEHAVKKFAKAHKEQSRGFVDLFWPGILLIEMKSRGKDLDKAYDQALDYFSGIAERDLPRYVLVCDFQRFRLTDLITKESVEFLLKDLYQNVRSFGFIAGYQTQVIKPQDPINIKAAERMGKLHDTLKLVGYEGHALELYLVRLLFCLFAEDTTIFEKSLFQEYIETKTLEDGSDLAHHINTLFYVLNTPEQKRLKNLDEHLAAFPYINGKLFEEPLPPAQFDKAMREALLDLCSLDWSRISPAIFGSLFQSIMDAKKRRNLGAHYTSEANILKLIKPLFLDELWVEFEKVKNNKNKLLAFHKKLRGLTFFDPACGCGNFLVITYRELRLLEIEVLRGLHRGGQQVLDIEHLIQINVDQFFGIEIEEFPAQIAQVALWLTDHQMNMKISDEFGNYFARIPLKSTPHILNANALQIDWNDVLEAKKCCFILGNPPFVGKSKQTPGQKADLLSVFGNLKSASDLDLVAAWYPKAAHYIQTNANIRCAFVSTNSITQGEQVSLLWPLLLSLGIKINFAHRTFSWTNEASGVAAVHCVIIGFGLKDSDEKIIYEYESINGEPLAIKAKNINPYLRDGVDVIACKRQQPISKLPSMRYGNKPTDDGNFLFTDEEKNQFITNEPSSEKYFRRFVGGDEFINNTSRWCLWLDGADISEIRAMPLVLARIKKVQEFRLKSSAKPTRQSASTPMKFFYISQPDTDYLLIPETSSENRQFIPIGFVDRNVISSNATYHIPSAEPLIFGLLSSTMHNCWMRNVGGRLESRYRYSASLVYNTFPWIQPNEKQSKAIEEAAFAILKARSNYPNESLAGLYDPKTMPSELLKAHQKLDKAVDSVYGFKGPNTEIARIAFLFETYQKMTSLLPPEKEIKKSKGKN
Put plainly: X-ray crystal structure, […] Å (SAD). In kind it is binding. The settings on record: ternary complex with 29-mer DNA containing TCCGAC; AdoMet site of methyltransferase domain; pH 7.5, 293 K; calcium ions in model.

Data set [2] addresses T2, MmeI (Methylophilus methylotrophus, UniProt B2MU09 1-919).
T2 sequence: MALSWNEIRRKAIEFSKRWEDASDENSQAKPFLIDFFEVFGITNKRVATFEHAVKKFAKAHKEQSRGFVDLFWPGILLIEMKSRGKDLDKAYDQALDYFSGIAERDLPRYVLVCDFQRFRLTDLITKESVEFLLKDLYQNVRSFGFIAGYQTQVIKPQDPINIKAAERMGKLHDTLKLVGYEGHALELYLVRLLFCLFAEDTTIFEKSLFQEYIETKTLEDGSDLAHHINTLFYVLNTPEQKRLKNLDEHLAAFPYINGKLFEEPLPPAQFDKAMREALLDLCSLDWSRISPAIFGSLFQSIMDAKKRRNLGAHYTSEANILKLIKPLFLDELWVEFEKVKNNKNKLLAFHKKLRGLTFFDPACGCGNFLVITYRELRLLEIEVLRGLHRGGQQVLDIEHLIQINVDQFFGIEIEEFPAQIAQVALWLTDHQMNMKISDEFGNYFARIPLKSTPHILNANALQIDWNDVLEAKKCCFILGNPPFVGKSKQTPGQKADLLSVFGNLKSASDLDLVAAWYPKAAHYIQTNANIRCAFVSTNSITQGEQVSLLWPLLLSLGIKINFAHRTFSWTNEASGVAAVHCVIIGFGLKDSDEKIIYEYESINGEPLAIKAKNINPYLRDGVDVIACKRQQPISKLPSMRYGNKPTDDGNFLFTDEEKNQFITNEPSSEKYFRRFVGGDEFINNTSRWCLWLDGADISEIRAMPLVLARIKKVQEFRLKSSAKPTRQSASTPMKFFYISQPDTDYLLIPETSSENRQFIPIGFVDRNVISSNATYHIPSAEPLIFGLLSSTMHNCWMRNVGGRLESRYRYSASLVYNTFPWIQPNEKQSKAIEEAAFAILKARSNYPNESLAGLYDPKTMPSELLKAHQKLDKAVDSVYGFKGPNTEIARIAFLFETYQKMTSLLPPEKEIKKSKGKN
Briefly: X-ray crystallography (2.6 A); Sinefungin; Ca2+ in model; Crystallization: 20% PEG 4K, 0.1 M Hepes pH 7.5, 0.1 M (NH4)2SO4, 293 K, with Sinefungin; no solution binding assay. The settings on record: protein: recombinant; blunt.

For the molecule `Nc1ncnc2c1ncn2[C@@H]1O[C@H](C[C@@H](N)CC[C@H](N)C(=O)O)[C@@H](O)[C@H]1O` [Sinefungin], the “X-ray crystal structure, 2.6 Å (SAD)” value at MmeI [1] is “The SAM analog Sinefungin is tightly bound within the MTase domain via extensive hydrogen bonding”.

B1: 29-mer MmeI site duplex, 5-bromouracil substituted (dsDNA)
DNA 1: TATCCGACAUAACGCUAGUCACUAGCUUC
DNA 2: GAAGCUAGUGACUAGCGUTAUGTCGGATA
modifications: U = 5-bromouracil (replaces several thymines outside the recognition site) in both strands
B1: the binding result in the data set with MmeI [2] is “binds”.

Source of the values: paper PMC4833311, “Structure of Type IIL Restriction-Modification Enzyme MmeI in Complex with DNA Has Implications for Engineering New Specificities” (PLoS Biology, 2016).
